According to the supplement of paper PMC10733146:

Experiments:
Test in all cases: viability relative to DMSO control (fraction); higher = less drug effect (more viable cells)
Details in all cases: 48 h
Pralatrexate = compound: C#CCC(Cc1cnc2nc(N)nc(N)c2n1)c1ccc(C(=O)N[C@@H](CCC(=O)O)C(=O)O)cc1 [Pralatrexate]
How it was run: (§1)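 Cells were incubated for 48 h at 37 °C and 5% CO2 in RPMI-1640 with penicillin/streptomycin, L-glutamine and human serum, at 4 × 10^4 cells per well in 384-well plates with compounds pre-plated at five concentrations, one well each. These were primary mononuclear tumour cells, fresh or cryopreserved, Ficoll-isolated from blood or bone marrow or obtained from processed lymph node. Viability values are CellTiter-Glo luminescence relative to the median of 16 inner DMSO wells.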

Pacritinib = compound: C1=N/C2=N/c3ccc(OCCN4CCCC4)c(c3)COC/C=C/COCc3cccc(c3)C(=C1)N2 [Pacritinib]
How it was run: as §1

AG-221 (Enasidinib) = compound: CC(C)(O)CNc1nc(Nc2ccnc(C(F)(F)F)c2)nc(-c2cccc(C(F)(F)F)n2)n1 [AG-221 (Enasidinib)]
How it was run: as §1

Bortezomib = compound: CC(C)C[C@H](NC(=O)[C@H](Cc1ccccc1)NC(=O)c1cnccn1)B(O)O [Bortezomib]
How it was run: as §1

Vincristine = compound: CC[C@]1(O)C[C@H]2CN(CCc3c([nH]c4ccccc34)[C@@](C(=O)OC)(c3cc4c(cc3OC)N(C=O)[C@H]3[C@@](O)(C(=O)OC)[C@H](OC(C)=O)[C@]5(CC)C=CCN6CC[C@]43[C@@H]65)C2)C1 [Vincristine]
How it was run: as §1

Obatoclax mesylate = compound: COC1=CC(c2cc3ccccc3[nH]2)=N/C1=C\c1[nH]c(C)cc1C [Obatoclax mesylate]
How it was run: as §1

Rigosertib = compound: COc1cc(OC)c(/C=C/S(=O)(=O)Cc2ccc(OC)c(NCC(=O)O)c2)c(OC)c1 [Rigosertib]
How it was run: as §1

Nelarabine = compound: COc1nc(N)nc2c1ncn2[C@@H]1O[C@H](CO)[C@@H](O)[C@@H]1O [Nelarabine]
How it was run: as §1

Imatinib = compound: Cc1ccc(NC(=O)c2ccc(CN3CCN(C)CC3)cc2)cc1Nc1nccc(-c2cccnc2)n1 [Imatinib]
How it was run: as §1

Nilotinib = compound: Cc1cn(-c2cc(NC(=O)c3ccc(C)c(Nc4nccc(-c5cccnc5)n4)c3)cc(C(F)(F)F)c2)cn1 [Nilotinib]
How it was run: as §1

BEZ235 = compound: Cn1c(=O)n(-c2ccc(C(C)(C)C#N)cc2)c2c3cc(-c4cnc5ccccc5c4)ccc3ncc21 [BEZ235]
How it was run: as §1

8-Azaguanin = compound: Nc1nc2n[nH]nc2c(=O)[nH]1 [8-Azaguanin]
How it was run: as §1

Vorinostat = compound: O=C(CCCCCCC(=O)Nc1ccccc1)NO [Vorinostat]
How it was run: as §1

TMP269 = compound: O=C(NCC1(c2nc(-c3ccccc3)cs2)CCOCC1)c1cccc(-c2noc(C(F)(F)F)n2)c1 [TMP269]
How it was run: as §1

Pentostatin = compound: OC[C@H]1O[C@@H](n2cnc3c2N=CNC[C@H]3O)C[C@@H]1O [Pentostatin]
How it was run: as §1

Test System: primary ALL patient cells (S088)
- viability (Pralatrexate; 0.024 µM): 1.07
- viability (Pralatrexate; 0.12 µM): 0.937
- viability (Pralatrexate; 0.6 µM): 0.927
- viability (Pralatrexate; 3 µM): 0.991
- viability (Pralatrexate; 15 µM): 0.917
- viability (Pacritinib; 0.024 µM): 0.868
- viability (Pacritinib; 0.12 µM): 0.843
- viability (Pacritinib; 0.6 µM): 0.707
- viability (Pacritinib; 3 µM): 0.287
- viability (Pacritinib; 15 µM): 0.0205
- viability (AG-221 (Enasidinib); 0.024 µM): 0.115
- viability (AG-221 (Enasidinib); 0.12 µM): 0.151
- viability (AG-221 (Enasidinib); 0.6 µM): 0.435
- viability (AG-221 (Enasidinib); 3 µM): 0.457
- viability (AG-221 (Enasidinib); 15 µM): 0.661
- viability (Bortezomib; 0.008 µM): 1.02
- viability (Bortezomib; 0.04 µM): 0.948
- viability (Bortezomib; 0.2 µM): 0.906
- viability (Bortezomib; 1 µM): 0.92
- viability (Bortezomib; 5 µM): 0.916
- viability (Vincristine; 0.016 µM): 0.689
- viability (Vincristine; 0.08 µM): 0.494
- viability (Vincristine; 0.4 µM): 0.335
- viability (Vincristine; 2 µM): 0.302
- viability (Vincristine; 10 µM): 0.256
- viability (Obatoclax mesylate; 0.024 µM): 0.977
- viability (Obatoclax mesylate; 0.12 µM): 0.804
- viability (Obatoclax mesylate; 0.6 µM): 0.582
- viability (Obatoclax mesylate; 3 µM): 0.262
- viability (Obatoclax mesylate; 15 µM): 0.0738
- viability (Rigosertib; 0.008 µM): 0.756
- viability (Rigosertib; 0.04 µM): 0.78
- viability (Rigosertib; 0.2 µM): 0.778
- viability (Rigosertib; 1 µM): 0.806
- viability (Rigosertib; 5 µM): 0.461
- viability (Nelarabine; 0.024 µM): 0.974
- viability (Nelarabine; 0.12 µM): 0.98
- viability (Nelarabine; 0.6 µM): 0.967
- viability (Nelarabine; 3 µM): 0.886
- viability (Nelarabine; 15 µM): 0.75
- viability (Imatinib; 0.016 µM): 1.08
- viability (Imatinib; 0.4 µM): 1.04
- viability (Imatinib; 10 µM): 1.24
- viability (Nilotinib; 0.016 µM): 1.16
- viability (Nilotinib; 0.08 µM): 1.16
- viability (Nilotinib; 0.4 µM): 1.14
- viability (Nilotinib; 2 µM): 1.22
- viability (Nilotinib; 10 µM): 1.26
- viability (BEZ235; 0.024 µM): 0.751
- viability (BEZ235; 0.12 µM): 0.644
- viability (BEZ235; 0.6 µM): 0.529
- viability (BEZ235; 3 µM): 0.427
- viability (BEZ235; 15 µM): 0.254
- viability (8-Azaguanin; 0.032 µM): 0.783
- viability (8-Azaguanin; 0.16 µM): 0.765
- viability (8-Azaguanin; 0.8 µM): 0.346
- viability (8-Azaguanin; 4 µM): 0.269
- viability (8-Azaguanin; 20 µM): 0.174
- viability (Vorinostat; 0.016 µM): 0.991
- viability (Vorinostat; 0.08 µM): 0.777
- viability (Vorinostat; 0.4 µM): 0.366
- viability (Vorinostat; 2 µM): 0.157
- viability (Vorinostat; 10 µM): 0.109
- viability (TMP269; 0.024 µM): 0.709
- viability (TMP269; 0.12 µM): 0.619
- viability (TMP269; 0.6 µM): 0.674
- viability (TMP269; 3 µM): 0.674
- viability (TMP269; 15 µM): 0.729
- viability (Pentostatin; 0.03 µM): 0.809
- viability (Pentostatin; 0.15 µM): 0.725
- viability (Pentostatin; 0.75 µM): 0.786
- viability (Pentostatin; 3.75 µM): 0.669
- viability (Pentostatin; 18.76 µM): 0.706

Test System: primary AML patient cells (S060)
- viability (Pralatrexate; 0.024 µM): 0.822
- viability (Pralatrexate; 0.12 µM): 0.789
- viability (Pralatrexate; 0.6 µM): 0.832
- viability (Pralatrexate; 3 µM): 0.779
- viability (Pralatrexate; 15 µM): 0.8
- viability (Pacritinib; 0.024 µM): 1.1
- viability (Pacritinib; 0.12 µM): 1.19
- viability (Pacritinib; 0.6 µM): 1.13
- viability (Pacritinib; 3 µM): 0.277
- viability (Pacritinib; 15 µM): 0.0188
- viability (AG-221 (Enasidinib); 0.024 µM): 0.928
- viability (AG-221 (Enasidinib); 0.12 µM): 0.871
- viability (AG-221 (Enasidinib); 0.6 µM): 1.01
- viability (AG-221 (Enasidinib); 3 µM): 0.91
- viability (AG-221 (Enasidinib); 15 µM): 0.847
- viability (Bortezomib; 0.008 µM): 0.973
- viability (Bortezomib; 0.04 µM): 1
- viability (Bortezomib; 0.2 µM): 0.956
- viability (Bortezomib; 1 µM): 1.06
- viability (Bortezomib; 5 µM): 0.908
- viability (Vincristine; 0.016 µM): 1.01
- viability (Vincristine; 0.08 µM): 0.971
- viability (Vincristine; 0.4 µM): 0.839
- viability (Vincristine; 2 µM): 0.82
- viability (Vincristine; 10 µM): 0.922
- viability (Obatoclax mesylate; 0.024 µM): 1.04
- viability (Obatoclax mesylate; 0.12 µM): 0.957
- viability (Obatoclax mesylate; 0.6 µM): 0.864
- viability (Obatoclax mesylate; 3 µM): 0.507
- viability (Obatoclax mesylate; 15 µM): 0.139
- viability (Rigosertib; 0.008 µM): 0.918
- viability (Rigosertib; 0.04 µM): 0.95
- viability (Rigosertib; 0.2 µM): 0.975
- viability (Rigosertib; 1 µM): 0.928
- viability (Rigosertib; 5 µM): 0.87
- viability (Nelarabine; 0.024 µM): 1.02
- viability (Nelarabine; 0.12 µM): 1.08
- viability (Nelarabine; 0.6 µM): 1.03
- viability (Nelarabine; 3 µM): 1.16
- viability (Nelarabine; 15 µM): 1.09
- viability (Imatinib; 0.016 µM): 1.06
- viability (Imatinib; 0.4 µM): 1.05
- viability (Imatinib; 2 µM): 0.971
- viability (Imatinib; 10 µM): 1.04
- viability (Nilotinib; 0.016 µM): 1.09
- viability (Nilotinib; 0.08 µM): 1.03
- viability (Nilotinib; 0.4 µM): 1.09
- viability (Nilotinib; 2 µM): 1
- viability (Nilotinib; 10 µM): 1.1
- viability (BEZ235; 0.024 µM): 0.941
- viability (BEZ235; 0.12 µM): 1.05
- viability (BEZ235; 0.6 µM): 0.93
- viability (BEZ235; 3 µM): 1.03
- viability (BEZ235; 15 µM): 0.794
- viability (8-Azaguanin; 0.032 µM): 0.971
- viability (8-Azaguanin; 0.16 µM): 1.05
- viability (8-Azaguanin; 0.8 µM): 0.896
- viability (8-Azaguanin; 4 µM): 0.736
- viability (8-Azaguanin; 20 µM): 0.557
- viability (Vorinostat; 0.016 µM): 1.04
- viability (Vorinostat; 0.08 µM): 1.09
- viability (Vorinostat; 0.4 µM): 1.02
- viability (Vorinostat; 2 µM): 0.389
- viability (Vorinostat; 10 µM): 0.0514
- viability (TMP269; 0.024 µM): 1.06
- viability (TMP269; 0.12 µM): 1.12
- viability (TMP269; 0.6 µM): 1.14
- viability (TMP269; 3 µM): 1.04
- viability (TMP269; 15 µM): 1.04
- viability (Pentostatin; 0.03 µM): 0.965
- viability (Pentostatin; 0.15 µM): 0.979
- viability (Pentostatin; 0.75 µM): 1
- viability (Pentostatin; 3.75 µM): 1.02
- viability (Pentostatin; 18.76 µM): 0.921
